The values that follow come from patent US11998539B2, “Substituted aminoquinolones as DGKalpha inhibitors for immune activation” (Bayer Aktiengesellschaft, priority 2019, dated 2024).

Sequence of DGKα (P23743 other isoform, or with tags, fused parts or gaps): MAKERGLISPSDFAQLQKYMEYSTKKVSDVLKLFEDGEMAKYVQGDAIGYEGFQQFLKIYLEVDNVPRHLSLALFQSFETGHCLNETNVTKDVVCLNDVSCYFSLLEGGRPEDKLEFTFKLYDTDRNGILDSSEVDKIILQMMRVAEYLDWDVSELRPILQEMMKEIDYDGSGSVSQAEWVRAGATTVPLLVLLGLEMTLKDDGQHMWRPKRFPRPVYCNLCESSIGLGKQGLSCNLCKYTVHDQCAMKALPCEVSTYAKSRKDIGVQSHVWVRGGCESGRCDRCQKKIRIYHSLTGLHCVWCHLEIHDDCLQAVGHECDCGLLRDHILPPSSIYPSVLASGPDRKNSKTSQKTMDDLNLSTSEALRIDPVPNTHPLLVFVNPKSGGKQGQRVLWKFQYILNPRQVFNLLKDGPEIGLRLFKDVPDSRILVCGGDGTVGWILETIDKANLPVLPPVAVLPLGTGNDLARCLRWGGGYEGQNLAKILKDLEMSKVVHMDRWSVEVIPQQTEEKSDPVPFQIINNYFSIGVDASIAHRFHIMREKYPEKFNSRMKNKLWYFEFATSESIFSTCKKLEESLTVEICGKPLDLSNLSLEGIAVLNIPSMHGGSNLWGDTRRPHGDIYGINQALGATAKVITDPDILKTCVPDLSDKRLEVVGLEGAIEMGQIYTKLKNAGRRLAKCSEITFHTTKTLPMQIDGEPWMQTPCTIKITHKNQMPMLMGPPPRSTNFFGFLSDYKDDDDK

For the assay, the target named is DGKα (Homo sapiens (Human), UniProt P23743). The assay can be described thus: Human DGKα kinase activity inhibition assay (ADP-Glo). The note with it: recombinant full-length human DGKα, 55 μM ATP, 7 μM 1,2-dioleoyl-sn-glycerol, read-out: IC50 values of examples in in vitro human DGKa kinase activity inhibition assays. The class given is biochemical. On the procedure:
Human DGKα Kinase Activity Inhibition Assay
Human DGKα inhibitory activity of compounds of the present invention was quantified employing the human DGKα kinase activity assay as described in the following paragraphs. In essence, the enzyme activity was measured by quantification of the adenosine-di-phosphate (ADP) generated as a co-product of the enzyme reaction via the “ADP-Glo™ Kinase Assay” kit from the company Promega. This detection system works as follows: In a first step the ATP not consumed in the kinase reaction is quantitatively converted to cAMP employing an adenylate cyclase (“ADP-Glo-reagent”), then the adenylate cyclase is stopped and the ADP generated in the kinase reaction converted to ATP, which subsequently generates in a luciferase-based reaction a glow-luminescence signal (“Kinase Detection Reagent”).
C-terminally FLAG-tagged, recombinant full-length human DGKα (expressed in baculovirus infected insect cells, purified using anti-Flag pulldown and size exclusion chromatography as described below, DGKa_hu_1) was used as enzyme. As substrate for the kinase 1,2-dioleoyl-sn-glycerol, reconstituted in octyl-β-D-glucopyranoside micelles, was used. […] Then 35 volumes of 50 mM MOPS buffer (pH 7.4) were added to yield a solution of 0.28 mM 1,2 dioleoyl-sn-glycerol and 200 mM […], which was aliquoted, flash-frozen in liquid nitrogen, and stored at −20° C. until use.
For the assay 50 nl of a 100-fold concentrated solution of the test compound in dimethyl sulfoxide (DMSO, Sigma) was pipetted into either a white 1536-well or a white low-volume 384-well microtiter plate (both Greiner Bio-One, Frickenhausen, Germany).
Background: ADP-Glo first removes unused ATP, then detects ADP through luciferase.
For the compound `Cn1c(=O)c(C#N)c(N2CCC(c3nc4ccccc4o3)CC2)c2ccc(Cl)cc21` [Example 227, 4-[4-(1,3-benzoxazol-2-yl)piperidin-1-yl]-7-chloro-1-methyl-2-oxo-1,2-dihydroquinoline-3-carbonitrile], the IC50 (in general, the concentration that inhibits the measured activity by half) is 2 nM.
In the case of `COCCc1cccc2oc(C3CCN(c4c(C(N)=O)c(=O)n(C)c5ccccc45)CC3)nc12` [Example 315, 4-{4-[4-(2-methoxyethyl)-1,3-benzoxazol-2-yl]piperidin-1-yl}-1-methyl-2-oxo-1,2-dihydroquinoline-3-carboxamide], the IC50 worked out at 46 nM.
Turning to `Cn1c(=O)c(C#N)c(N2CCC(c3nc4ccccc4s3)CC2)c2ccc(N3CCCC3=O)cc21` [Example 36, 4-[4-(1,3-benzothiazol-2-yl)piperidin-1-yl]-1-methyl-2-oxo-7-(2-oxopyrrolidin-1-yl)-1,2-dihydroquinoline-3-carbonitrile], the IC50 turned out to be 8.3 nM.
With `COc1ccc2c(c1)c(N1CCC(c3nc4cc(C)ccc4o3)CC1)c(C#N)c(=O)n2C` [Example 402, 6-methoxy-1-methyl-4-[4-(5-methyl-1,3-benzoxazol-2-yl)piperidin-1-yl]-2-oxo-1,2-dihydroquinoline-3-carbonitrile], the 50% inhibitory concentration (IC50) came out at 16 nM.
As to `Cc1ccc2oc(C3CCN(c4c(C#N)c(=O)n(C)c5cc(Br)ccc45)CC3)nc2c1` [Example 281, 7-bromo-1-methyl-4-[4-(5-methyl-1,3-benzoxazol-2-yl)piperidin-1-yl]-2-oxo-1,2-dihydroquinoline-3-carbonitrile], the IC50 stood at 8.9 nM.
As for `Cc1ccc2oc(C3(C)CCN(c4c(C#N)c(=O)n(C)c5cc(C6CC6)ccc45)CC3)nc2c1` [Example 250, 7-cyclopropyl-1-methyl-4-[4-methyl-4-(5-methyl-1,3-benzoxazol-2-yl)piperidin-1-yl]-2-oxo-1,2-dihydroquinoline-3-carbonitrile], the IC50 was 9.1 nM.
`Cc1cccc(-c2noc(C3CCN(c4c(C#N)c(=O)n(C)c5ccccc45)CC3)n2)c1` [Example 350, 1-methyl-4-{4-[3-(3-methylphenyl)-1,2,4-oxadiazol-5-yl]piperidin-1-yl}-2-oxo-1,2-dihydroquinoline-3-carbonitrile]: the IC50 came out at 11 nM.
As for `Cn1c(=O)c(C#N)c(N2CCC(c3ccc4c(c3)CC(O)C4)CC2)c2ccccc21` (stereo not shown) [Example 359, 4-[4-(2-hydroxy-2,3-dihydro-1H-inden-5-yl)piperidin-1-yl]-1-methyl-2-oxo-1,2-dihydroquinoline-3-carbonitrile], the 50% inhibitory concentration (IC50) stood at 3.3 nM.
Next, `Cc1ccc2oc(C3CCN(c4c(C#N)c(=O)n(C)c5cc(Cl)ccc45)CC3)nc2c1` [Example 229, 7-chloro-1-methyl-4-[4-(5-methyl-1,3-benzoxazol-2-yl)piperidin-1-yl]-2-oxo-1,2-dihydroquinoline-3-carbonitrile]: 3 nM; `Cc1ccc2c(N3CCC(c4nc5ccccc5o4)CC3)c(C(N)=O)c(=O)n(C)c2c1` [Example 314, 4-[4-(1,3-benzoxazol-2-yl)piperidin-1-yl]-1,7-dimethyl-2-oxo-1,2-dihydroquinoline-3-carboxamide]: 1.7 nM; `Cc1cccc(-n2ccc(C3CCN(c4c(C#N)c(=O)n(C)c5ccccc45)CC3)n2)c1` [Example 366, 1-methyl-4-{4-[1-(3-methylphenyl)-1H-pyrazol-3-yl]piperidin-1-yl}-2-oxo-1,2-dihydroquinoline-3-carbonitrile]: 12 nM.
Regarding `Cc1ccc2oc(C3(C)CCN(c4c(C#N)c(=O)n(C)c5ccc(C6CC6)cc45)CC3)nc2c1` [Example 210, 6-cyclopropyl-1-methyl-4-[4-methyl-4-(5-methyl-1,3-benzoxazol-2-yl)piperidin-1-yl]-2-oxo-1,2-dihydroquinoline-3-carbonitrile], the IC50 came to 119 nM.
Next, `Cn1c(=O)c(C(N)=O)c(N2CCC(c3nc4cc(F)c(F)cc4o3)CC2)c2ccccc21` [Example 109, 4-[4-(5,6-difluoro-1,3-benzoxazol-2-yl)piperidin-1-yl]-1-methyl-2-oxo-1,2-dihydroquinoline-3-carboxamide]: 2.1 nM.
